US20040024024A1, “Aromatic sulfone hydroxamates and their use as protease inhibitors” (priority 2001, published 2004)

Columns and labels:
Test in all cases: In vitro MMP inhibition, IC50 determination (fluorogenic substrate I)
Assay type in all cases: biochemical
Details in all cases: value outside parentheses (Ki in parenthesis)
Human recombinant MMP-1 = target: T1, Human recombinant MMP-1 (Homo sapiens, UniProt P03956)
T1 construct: made in house; host or cells: MMP-1-transfected HT-1080 cells (spent media)
T1 sequence (P03956 100-469): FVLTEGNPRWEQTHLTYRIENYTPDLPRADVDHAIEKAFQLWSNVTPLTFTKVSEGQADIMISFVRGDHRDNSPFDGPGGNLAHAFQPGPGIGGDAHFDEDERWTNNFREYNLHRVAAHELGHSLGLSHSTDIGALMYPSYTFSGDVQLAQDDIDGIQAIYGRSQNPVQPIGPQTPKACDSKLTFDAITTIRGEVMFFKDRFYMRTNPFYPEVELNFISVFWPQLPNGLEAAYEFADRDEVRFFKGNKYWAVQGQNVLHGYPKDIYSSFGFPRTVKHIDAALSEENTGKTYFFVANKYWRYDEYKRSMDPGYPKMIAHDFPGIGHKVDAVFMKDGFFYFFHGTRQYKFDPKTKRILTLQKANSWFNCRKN
Summary of the method: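 Inhibitor dilutions were made in 100 mM Tris-HCl/100 mM NaCl/10 mM CaCl2 buffer, pH 7.5, and incubated at room temperature with activated proenzyme (from transfected HT-1080 media; APMA or trypsin) and 4 μM quenched methoxycoumarin peptide substrate. Loss of 415 nm fluorescence (328 nm excitation) against concentration gave IC50.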

Human recombinant MMP-2 = target: T2, Human recombinant MMP-2 (Homo sapiens, UniProt P08253)
T2 construct: made in house; host or cells: MMP-2-transfected p2AHT2 cells
T2 sequence (P08253 110-660): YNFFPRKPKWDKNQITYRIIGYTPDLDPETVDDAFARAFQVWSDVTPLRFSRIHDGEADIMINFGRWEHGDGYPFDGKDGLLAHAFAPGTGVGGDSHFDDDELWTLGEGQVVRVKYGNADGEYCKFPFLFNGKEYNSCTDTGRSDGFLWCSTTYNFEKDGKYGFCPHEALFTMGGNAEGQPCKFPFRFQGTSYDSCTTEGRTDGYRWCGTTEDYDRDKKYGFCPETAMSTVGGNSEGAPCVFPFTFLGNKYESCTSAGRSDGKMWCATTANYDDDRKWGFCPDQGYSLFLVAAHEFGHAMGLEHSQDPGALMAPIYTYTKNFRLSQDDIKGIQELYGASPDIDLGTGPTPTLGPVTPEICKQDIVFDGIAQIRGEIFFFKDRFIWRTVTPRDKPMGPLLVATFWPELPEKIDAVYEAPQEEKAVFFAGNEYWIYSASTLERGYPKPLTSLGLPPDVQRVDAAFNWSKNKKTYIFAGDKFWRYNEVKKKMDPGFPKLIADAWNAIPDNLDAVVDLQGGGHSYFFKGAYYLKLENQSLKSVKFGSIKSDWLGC
Summary of the method: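 IC50 was derived from the concentration-dependent fall in fluorescence (ex 328, em 415 nm) on Gly-Leu cleavage of 4 μM MCA/Dpa-quenched substrate I. Assays ran at room temperature in pH 7.5 Tris/NaCl/CaCl2/Brij buffer with MMP-2 activated by trypsin or APMA; inhibitors were diluted from 1% DMSO stocks.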

Human recombinant MMP-9 = target: T3, Human recombinant MMP-9 (Homo sapiens, UniProt P14780)
T3 construct: made in house; host or cells: MMP-9-transfected HT1080 cells (spent media)
T3 sequence (P14780 107-707 limits assumed): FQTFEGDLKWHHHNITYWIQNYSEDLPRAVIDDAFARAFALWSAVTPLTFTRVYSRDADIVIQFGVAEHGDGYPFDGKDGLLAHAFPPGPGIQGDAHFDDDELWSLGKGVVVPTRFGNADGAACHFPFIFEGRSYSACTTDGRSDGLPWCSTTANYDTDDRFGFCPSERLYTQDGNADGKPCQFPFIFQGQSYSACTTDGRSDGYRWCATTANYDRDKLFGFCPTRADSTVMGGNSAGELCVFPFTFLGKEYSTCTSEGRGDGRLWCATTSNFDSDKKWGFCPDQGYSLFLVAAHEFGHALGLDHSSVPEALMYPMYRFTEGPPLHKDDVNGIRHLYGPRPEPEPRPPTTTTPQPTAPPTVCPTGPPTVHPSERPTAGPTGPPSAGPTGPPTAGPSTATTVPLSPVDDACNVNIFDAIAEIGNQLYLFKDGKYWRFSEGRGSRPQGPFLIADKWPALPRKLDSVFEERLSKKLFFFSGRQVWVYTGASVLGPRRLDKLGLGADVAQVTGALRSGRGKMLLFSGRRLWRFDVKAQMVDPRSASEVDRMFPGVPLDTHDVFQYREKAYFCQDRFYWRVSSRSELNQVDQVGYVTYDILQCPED
Summary of the method: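 Reduction in fluorescence (328 nm excitation, 415 nm emission) from cleavage of 4 μM quenched peptide substrate I, measured at room temperature against inhibitor concentration, gave IC50. Enzyme: trypsin- or APMA-activated MMP-9 purified from transfected HT1080 medium; buffer 100 mM Tris, 100 mM NaCl, 10 mM CaCl2, pH 7.5.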

Human recombinant MMP-13 = target: T4, Human recombinant MMP-13 (Homo sapiens, UniProt P45452)
T4 construct: made in house; host or cells: baculovirus / insect cells
Summary of the method: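 Fluorescence at 415 nm (excitation 328 nm) reports Gly-Leu cleavage of 4 μM quenched methoxycoumarin peptide substrate I. Human recombinant MMP-13, activated by trypsin or APMA, was incubated at room temperature with varied inhibitor concentrations in pH 7.5 Tris/NaCl/CaCl2 buffer; IC50 derived from reduced fluorescence.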

Human recombinant MMP-14 = target: T5, Human recombinant MMP-14 (Homo sapiens, UniProt P50281)
T5 construct: The catalytic domain enzyme was expressed in E. coli inclusion bodies, solubilized in urea; made in house
Summary of the method: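 IC50 came from reduced fluorescence (ex 328 nm, em 415 nm) as inhibitor concentration rose, with 4 μM substrate I cleaved at Gly-Leu. Room-temperature incubation in pH 7.5 Tris buffer with 10 mM CaCl2; the E. coli-expressed, refolded MMP-14 catalytic domain was activated with trypsin or APMA.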

SMILES	IC50 (Human recombinant MMP-1) [nM]	IC50 (Human recombinant MMP-2) [nM]	IC50 (Human recombinant MMP-9) [nM]	IC50 (Human recombinant MMP-13) [nM]	IC50 (Human recombinant MMP-14) [nM]
Cc1oc(CCCOc2ccc(S(=O)(=O)C3(C(=O)NO)CCOCC3)cc2)nc1-c1ccccc1 [Example 317]	> 10000	120	244	3.1	> 10000
O=C(NO)C1(S(=O)(=O)c2ccc(OCCCOc3ccc(C(F)(F)F)cc3)cc2)CCN(C2CC2)CC1 [Example 319]	> 10000	5.8	258	1	4220
O=C(NO)C1(S(=O)(=O)c2ccc(OCCCNc3nc4ccccc4o3)cc2)CCOCC1 [Example 321]	> 10000	1700	626	3.7	> 10000
O=C(CCCCOc1ccc(S(=O)(=O)C2(C(=O)NO)CCOCC2)cc1)c1cccs1 [Example 324]	2990	4.2	500	0.5	8000
O=C(CCCCOc1ccc(S(=O)(=O)C2(C(=O)NO)CCOCC2)cc1)c1cccc(-c2ccccc2)c1 [Example 325]	> 10000	11	4040	0.5	> 10000
O=C(CCCCOc1ccc(S(=O)(=O)C2(C(=O)NO)CCOCC2)cc1)c1ccccc1 [Example 326]	> 10000	7.4	263	0.3	8320
CC(C)(C)c1ccc(C(=O)CCCCOc2ccc(S(=O)(=O)C3(C(=O)NO)CCOCC3)cc2)cc1 [Example 327]	> 10000	50.7	5280	0.9	> 10000
CCOc1ccc2nc(SCCOc3ccc(S(=O)(=O)C4(C(=O)NO)CCOCC4)cc3)sc2c1 [Example 330]	> 10000	262	216	16	592
O=C(NO)C1(S(=O)(=O)c2ccc(OCCCS(=O)(=O)N3CCc4ccccc4C3)cc2)CCOCC1 [Example 332]	2460	3.6	132	2.6	> 10000
O=C1c2cc(Cl)c(Cl)cc2C(=O)N1CCCOc1ccc(S(=O)(=O)C2(C(=O)NO)CCOCC2)cc1 [Example 333]	> 10000	656	3240	1.8	> 10000
O=C(NO)C1(S(=O)(=O)c2ccc(OCCCCN3CCc4ccccc4C3)cc2)CCOCC1 [Example 334]	> 10000	16.4	866	5.1	2880
COc1cc2c(cc1OC)C(C)N(C(=O)OCCCCOc1ccc(S(=O)(=O)C3(C(=O)NO)CCOCC3)cc1)CC2 (stereo not shown) [Example 335]	> 10000	2.3	172	6.5	> 10000
Cc1cc(C(=O)CCCCOc2ccc(S(=O)(=O)C3(C(=O)NO)CCOCC3)cc2)ccc1OC(C)C [Example 340]	> 10000	253	5590	1.9	> 10000
O=C(NO)C1(S(=O)(=O)c2ccc(OCCSc3nc4ccccc4s3)cc2)CCOCC1 [Example 341]	> 10000	16.8	1120	0.5	6400
O=C(CCCCOc1ccc(S(=O)(=O)C2(C(=O)NO)CCOCC2)cc1)c1cccc2ccccc12 [Example 342]	> 10000	41.2	2170	2	> 10000
COc1ccc(-c2nnc(CCCCOc3ccc(S(=O)(=O)C4(C(=O)NO)CCOCC4)cc3)o2)cc1 [Example 346]	> 10000	2.6	2010	0.9	> 10000

The remaining lines, values ahead:

IC50 (Human recombinant MMP-1) [nM]	IC50 (Human recombinant MMP-2) [nM]	IC50 (Human recombinant MMP-9) [nM]	IC50 (Human recombinant MMP-13) [nM]	IC50 (Human recombinant MMP-14) [nM]	SMILES
> 10000	61.8	> 10000	4.4	> 10000	O=C(NO)C1(S(=O)(=O)c2ccc(OCCCCS(=O)(=O)C3CCCCC3)cc2)CCOCC1 [Example 348]
3280	2.6	271	0.5	2670	O=C(CCCOc1ccc(S(=O)(=O)C2(C(=O)NO)CCOCC2)cc1)Nc1ccccc1O [Example 350]
> 10000	34.1	2220	1	> 10000	COc1ccc(C(=O)CCCCOc2ccc(S(=O)(=O)C3(C(=O)NO)CCOCC3)cc2)c(OC)c1 [Example 351]
> 10000	33.6	3600	2	6240	O=C(CCCOc1ccc(S(=O)(=O)C2(C(=O)NO)CCOCC2)cc1)c1cccc2ccccc12 [Example 352]
> 10000	25.1	1150	1.8	> 10000	O=C(CCCOc1ccc(S(=O)(=O)C2(C(=O)NO)CCOCC2)cc1)c1cccc(-c2ccccc2)c1 [Example 353]
> 10000	17.4	1070	1.1	3620	CC(C)(C)c1ccc(C(=O)CCCOc2ccc(S(=O)(=O)C3(C(=O)NO)CCOCC3)cc2)cc1 [Example 355]
> 10000	33.1	1650	0.8	> 10000	O=C(CCCOc1ccc(S(=O)(=O)C2(C(=O)NO)CCOCC2)cc1)c1ccc(-c2ccccc2)cc1 [Example 356]
> 10000	10.2	952	1.7	> 10000	CN(C)c1ccc(NC(=O)CCCOc2ccc(S(=O)(=O)C3(C(=O)NO)CCOCC3)cc2)cc1 [Example 357]
> 10000	2.3	1180	1	7960	O=C(NO)C1(S(=O)(=O)c2ccc(OCCCCCn3cnc4ccccc43)cc2)CCOCC1 [Example 359]
> 10000	9.7	547	6.4	962	O=C(NO)C1(S(=O)(=O)c2ccc(OCCCCCN3CCc4ccccc4C3)cc2)CCOCC1 [Example 360]
6000	500	> 10000	0.5	> 10000	CN(C)c1ccc(C(=O)NCCCOc2ccc(S(=O)(=O)C3(C(=O)NO)CCOCC3)cc2)cc1 [Example 361]
> 10000	250	> 10000	1.8	> 10000	CCCCOc1ccc(C(=O)NCCCOc2ccc(S(=O)(=O)C3(C(=O)NO)CCOCC3)cc2)cc1 [Example 364]
> 10000	150	9000	0.8	> 10000	COC(=O)c1ccc(C(=O)NCCCOc2ccc(S(=O)(=O)C3(C(=O)NO)CCOCC3)cc2)cc1 [Example 368]
